# Data reported in publication PMC3625477 (Journal of acquired immune deficiency syndromes (1999), 2013).
# “And” between values parts separate entries of the source, which are not always exact repeats. Identical values can stand only once. Like-named read-outs stand apart in the source and are kept apart here.
# How the values were obtained:
# [1] = type: in vivo, HIV-infected pregnant women; conditions: for concentration at 12 h / AUC(0-t) / Cmax: female, human, plasma; for concentration at 12 h: oral, C12h; for concentration at 12 h / AUC(0-t) / Cmax / C12h / Cl: protein unbound, median; for AUC(0-t) / Cmax: po; for AUC(0-t): AUC0–12h
# wild-type virus = conditions: total lopinavir; cited from earlier work
# wild type virus (HIV) = conditions: unbound lopinavir; cited from earlier work
# Total = type: in vivo, HIV-infected pregnant women; conditions: for concentration at 12 h / AUC(0-t) / Cmax: plasma; for concentration at 12 h: oral, C12h; for AUC(0-t) / Cmax: po; for AUC(0-t): AUC0–12h
# [2] = tested on: blood plasma proteins albumin and alpha-1-acid-glycoprotein (AAG); conditions: cited from earlier work
# [3] = 8 wks postpartum (PK4), LPV/RTV 400mg/100mg twice daily
# [4] = 20–24 wks (PK1), LPV/RTV 400mg/100mg twice daily
# [5] = 30 wks (PK2), LPV/RTV 400mg/100mg twice daily
# [6] = 32 wks (PK3), LPV/RTV 500mg/125mg twice daily
# [7] = female, human, total (bound + unbound), 8 wks postpartum (PK4), LPV/RTV 400mg/100mg twice daily, median
# [8] = female, human, total (bound + unbound), 20–24 wks (PK1), LPV/RTV 400mg/100mg twice daily, median
# [9] = female, human, total (bound + unbound), 30 wks (PK2), LPV/RTV 400mg/100mg twice daily, median
# [10] = female, human, total (bound + unbound), 32 wks (PK3), LPV/RTV 500mg/125mg twice daily, median
# [11] = total (bound + unbound), 8 wks postpartum (PK4), LPV/RTV 400mg/100mg twice daily, median
# [12] = total (bound + unbound), 20–24 wks (PK1), LPV/RTV 400mg/100mg twice daily, median
# [13] = total (bound + unbound), 30 wks (PK2), LPV/RTV 400mg/100mg twice daily, median
# [14] = total (bound + unbound), 32 wks (PK3), LPV/RTV 500mg/125mg twice daily, median
smiles,measurement,setting,value
"Cc1cccc(C)c1OCC(=O)N[C@@H](Cc1ccccc1)[C@@H](O)C[C@H](Cc1ccccc1)NC(=O)[C@H](C(C)C)N1CCCNC1=O [Lopinavir, lopinavir]",increase in protein-unbound AUC0–12h with the increased dose,[1]; PK2 vs PK3,< 15%
same,share of all unbound concentrations below the wild type IC50 of 0.00064 µg/mL,[1]; all visits,Less than 2%
same,concentration at 12 h,[1]; [3],160 ng/mL
same,concentration at 12 h,[1]; [4],150 ng/mL
same,concentration at 12 h,[1]; [5],100 ng/mL
same,concentration at 12 h,[1]; [6],120 ng/mL
same,AUC(0-t),[1]; [3],2600 ng·h/mL
same,AUC(0-t),[1]; [4],1600 ng·h/mL
same,AUC(0-t),[1]; [5],1600 ng·h/mL
same,AUC(0-t),[1]; [6],1800 ng·h/mL
same,Cmax,[1]; [3],280 ng/mL
same,Cmax,[1]; [4],180 ng/mL
same,Cmax,[1]; [5],210 ng/mL
same,Cmax,[1]; [6],240 ng/mL
same,C12h,[1]; [3],160 ng/mL
same,Cl,[1]; [3],92 L/h
same,C12h,[1]; [4],150 ng/mL
same,Cl,[1]; [4],123 L/h
same,C12h,[1]; [5],100 ng/mL
same,Cl,[1]; [5],155 L/h
same,C12h,[1]; [6],120 ng/mL
same,Cl,[1]; [6],131 L/h
same,minimum effective concentration,wild-type virus,1 µg/mL
same,protein-unbound IC50 (50% inhibitory concentration),wild type virus (HIV),0.64 ng/mL and 0.64 to 0.77 ng/mL
same,postpartum total C12h higher than at any point during pregnancy,"Total; female, human, in vivo, 12 h",38–80%
same,women with total lopinavir C12h below 4 µg/mL,"Total; second trimester, standard-dose LPV/RTV, 12 participants",33%
"CC(C)c1nc(CN(C)C(=O)N[C@H](C(=O)N[C@@H](Cc2ccccc2)C[C@H](O)[C@H](Cc2ccccc2)NC(=O)OCc2cncs2)C(C)C)cs1 [Ritonavir, ritonavir]",concentration at 12 h,[1]; [3],30 ng/mL
same,concentration at 12 h,[1]; [4],20 ng/mL
same,concentration at 12 h,[1]; [5],20 ng/mL
same,concentration at 12 h,[1]; [6],20 ng/mL
same,AUC(0-t),[1]; [3],500 ng·h/mL
same,AUC(0-t),[1]; [4],400 ng·h/mL
same,AUC(0-t),[1]; [6],300 ng·h/mL
same,Cmax,[1]; [3],80 ng/mL
same,Cmax,[1]; [4],60 ng/mL
same,Cmax,[1]; [5],50 ng/mL
same,Cmax,[1]; [6],50 ng/mL
same,Cl,[1]; [3],127 L/h
same,Cl,[1]; [4],169 L/h
same,Cl,[1]; [5],261 L/h
same,Cl,[1]; [6],306 L/h
same,bound to the blood plasma proteins,[2],98–99%
same,concentration at 12 h,Total; [7],280 ng/mL
same,concentration at 12 h,Total; [8],120 ng/mL
same,concentration at 12 h,Total; [9],120 ng/mL
same,concentration at 12 h,Total; [10],150 ng/mL
same,AUC(0-t),Total; [8],2500 ng·h/mL
same,AUC(0-t),Total; [9],2300 ng·h/mL
same,AUC(0-t),Total; [10],2400 ng·h/mL
same,Cmax,Total; [7],620 ng/mL
same,Cmax,Total; [8],350 ng/mL
same,Cmax,Total; [9],300 ng/mL
same,Cmax,Total; [10],360 ng/mL
same,AUC0–12h,Total; [11],5200 ng·h/mL
same,C12h,Total; [11],280 ng/mL
same,Cl (apparent oral clearance),Total; [11],12 L/h
same,C12h,Total; [12],120 ng/mL
same,Cl (apparent oral clearance),Total; [12],29 L/h
same,C12h,Total; [13],120 ng/mL
same,Cl (apparent oral clearance),Total; [13],33 L/h
same,C12h,Total; [14],150 ng/mL
same,Cl (apparent oral clearance),Total; [14],37 L/h
